Measurements: the supplement of paper PMC13380429
± gives the standard deviation of the averaged measurements.

Experiments:
Conditions in all cases: 72 h
Calu-3 [1] = test: drug sensitivity score (DSS) for viability; higher = more toxic; extreme values may be limits of the assay
U2OS [2] = test: as above
HepG2 [3] = test: as above
Vero E6 [4] = test: as above
Caco-2 [5] = test: as above
Calu-3 [6] = test: cell viability relative to DMSO; higher = less toxic
U2OS [7] = test: as above
HepG2 [8] = test: as above
Vero E6 [9] = test: as above
Caco-2 [10] = test: as above
Calu-3 [11] = test: relative viability EC50 (midpoint between 100% and the lowest measured viability); higher = less toxic
U2OS [12] = test: as above
HepG2 [13] = test: as above
Vero E6 [14] = test: as above
Caco-2 [15] = test: as above

Row | SMILES | drug sensitivity score (Calu-3 [1]) | drug sensitivity score (U2OS [2]) | drug sensitivity score (HepG2 [3]) | drug sensitivity score (Vero E6 [4]) | drug sensitivity score (Caco-2 [5]) | cell viability (Calu-3 [6]; 1 nM) [%] | cell viability (Calu-3 [6]; 10 nM) [%] | cell viability (Calu-3 [6]; 100 nM) [%] | cell viability (Calu-3 [6]; 1000 nM) [%] | cell viability (Calu-3 [6]; 10000 nM) [%] | cell viability (U2OS [7]; 1 nM) [%] | cell viability (U2OS [7]; 10 nM) [%] | cell viability (U2OS [7]; 100 nM) [%] | cell viability (U2OS [7]; 1000 nM) [%] | cell viability (U2OS [7]; 10000 nM) [%] | cell viability (HepG2 [8]; 1 nM) [%] | cell viability (HepG2 [8]; 10 nM) [%] | cell viability (HepG2 [8]; 100 nM) [%] | cell viability (HepG2 [8]; 1000 nM) [%] | cell viability (HepG2 [8]; 10000 nM) [%] | cell viability (Vero E6 [9]; 1 nM) [%] | cell viability (Vero E6 [9]; 10 nM) [%] | cell viability (Vero E6 [9]; 100 nM) [%] | cell viability (Vero E6 [9]; 1000 nM) [%] | cell viability (Vero E6 [9]; 10000 nM) [%] | cell viability (Caco-2 [10]; 1 nM) [%] | cell viability (Caco-2 [10]; 10 nM) [%] | cell viability (Caco-2 [10]; 100 nM) [%] | cell viability (Caco-2 [10]; 1000 nM) [%] | cell viability (Caco-2 [10]; 10000 nM) [%] | relative viability EC50 (Calu-3 [11]) [µM] | relative viability EC50 (U2OS [12]) [µM] | relative viability EC50 (HepG2 [13]) [µM] | relative viability EC50 (Vero E6 [14]) [µM] | relative viability EC50 (Caco-2 [15]) [µM]
1 | COc1ccc(CCC(=O)Nc2nc3ccc(Cl)cc3s2)cc1OC | 0.1 | 0 | 0 | 0 | 0.3 | 102 | 94.9 | 92.7 | 91.7 | 89.3 | 101 | 94.7 | 98.5 | 95.1 | 96.3 | 96.5 | 110 | 96.3 | 98.3 | 98.1 | 101 | 96.9 | 97.3 | 101 | 95.2 | 102 | 94 | 95.9 | 92.1 | 85.4 | > 10 | > 10 | > 10 | > 10 | > 10
2 | Fc1ccc(-c2nc3n(c2-c2ccncc2)CCS3)cc1 | 0 | 0 | 0 | 0 | 0.2 | 95.2 | 86.2 | 90.9 | 87.7 | 101 | 99 | 97.8 | 98.7 | 96.1 | 97.6 | 97.3 | 93.2 | 97.8 | 99.9 | 100 | 97.8 | 99.7 | 98.2 | 99.1 | 93 | 99.6 | 101 | 90.9 | 89.4 | 92 | > 10 | > 10 | > 10 | > 10 | > 10
3 | NC1=N[C@@]2(c3cc(NC(=O)c4ccc(F)cn4)ccc3F)COC[C@H]2CS1 | 0 | 0 | 0 | 0 | 0 | 103 | 96.5 | 93.4 | 93.1 | 98.5 | 98.6 | 94.6 | 101 | 98.4 | 100 | 99.9 | 110 | 93.4 | 112 | 105 | 95.5 | 97.2 | 94.3 | 99.4 | 102 | 94.8 | 93.7 | 101 | 86 | 103 | > 10 | > 10 | > 10 | > 10 | > 10
4 | NNC(=O)CSc1nc2scc(-c3ccccc3)c2c(=O)n1-c1ccccc1 | 0 | 0 |  | 0 | 0 | 91.9 | 93.2 | 95.3 | 103 | 101 | 97.7 | 95.8 | 98.3 | 103 | 102 |  |  |  |  |  | 94.1 | 97.1 | 94.8 | 90.5 | 109 | 100 | 97.7 | 93.1 | 93.6 | 108 | > 10 | > 10 |  | > 10 | > 10
5 | O=c1[nH]ccc2cc(OC3CCNCC3)ccc12 | 0 | 0 | 0 | 0 | 0 | 93.8 | 106 | 111 | 127 | 130 | 97.6 | 98.2 | 101 | 96.3 | 94.9 | 98.1 | 99.7 | 108 | 112 | 106 | 97.1 | 101 | 89.6 | 100 | 92 | 89.7 | 96.4 | 99.7 | 100 | 106 | > 10 | > 10 | > 10 | > 10 | > 10
6 | Cc1ccc2c(c1)C(=O)[C@]1(O)CCN(c3ccccc3)C1=N2 (racemic) [blebbistatin-(+/-)] | 0 | 0.05 ± 0.071 | 0 | 0.15 ± 0.21 | 0.3 ± 0.42 | 99 ± 11 | 95.9 ± 0.28 | 95.5 ± 10 | 109 ± 3.2 | 136 ± 9.8 | 99.4 ± 1.6 | 101.2 ± 0.78 | 97.8 ± 1.8 | 99.85 ± 0.35 | 95.2 ± 12 | 98 ± 1.3 | 88.2 ± 0.92 | 98.3 ± 8.3 | 89 ± 9.6 | 96 ± 7 | 98.6 ± 0.99 | 96.6 ± 4.5 | 96.4 ± 4.4 | 95.5 ± 3.9 | 93.4 ± 10 | 100 ± 2.5 | 97.25 ± 0.49 | 97.9 ± 2.1 | 98.5 ± 1.1 | 94.2 ± 16 | > 10 | > 10 | > 10 | > 10 | > 10
7 | C=C[C@H]1CN2CC[C@H]1CC2C(OC(=O)OCC)c1ccnc2ccc(OC)cc12 (stereo in doubt) [quinine-ethyl-carbonate] | 0 | 0 | 0 | 0 | 0 | 99.9 | 104 | 102 | 90.4 | 101 | 99.9 | 97.3 | 101 | 96.9 | 96.9 | 93.2 | 97.7 | 100 | 104 | 97.4 | 104 | 95.9 | 105 | 107 | 100 | 114 | 97.1 | 94.2 | 105 | 114 | > 10 | > 10 | > 10 | > 10 | > 10
8 | CN1CCN(C2=Cc3ccccc3Oc3ccc(Cl)cc32)CC1 [2-CMDO] | 0 | 0 |  | 0 | 0 | 103 | 102 | 98.2 | 112 | 95.6 | 101 | 98.6 | 96.7 | 100 | 90.1 |  |  |  |  |  | 102 | 99.5 | 103 | 103 | 93.3 | 107 | 90.6 | 99.7 | 103 | 92.3 | > 10 | > 10 |  | > 10 | > 10
